Experimental data: patent US11207277B2, “Methods of treating diseases associated with high-fat diet and vitamin a deficiency using retinoic acid receptor agonists” (Cornell University, priority 2013, dated 2021)
Entries after “also recorded” stand apart in the source; their conditions may differ.

Key:
α-SMA = α-SMA immunofluorescence of kidney sections; type: in vivo; conditions: HF diet mice + AC261066
Text: (§1) WT male C57/BL6 male mice were maintained on either a standard laboratory chow-fed diet (CFD) with 13% kcal fat, (diet #5053, Lab Diet, Inc, St. Louis, Mo.) or a high fat, western style diet (HFD) with 60% kcals from fat, (diet #58126, Lab Diet, Inc., St. Louis, Mo.) for 4 months. One month after the start of the high fat diet treatment, the high fat diet group was further split into 2 groups for 3 months: i) high fat diet and the drinking water containing 1% DMSO; ii) high fat diet and the drinking water containing 1.5 mg/100 ml AC261066, a specific RARβ agonist. Then mice were sacrificed by cervical dislocation. Blood and various tissue samples were harvested.
Fresh mouse kidney samples were embedded in optimal cutting temperature (OCT) medium and immediately frozen to −70 centigrade. Cryosections were then fixed in 4% formaldehyde for 1 hr at room temp. Slides were then rinsed three times in deionized water (dH2O) for 30 s, followed by treatment with 0.5% Triton X-100 in PBS for 5 min. Sections were then washed three times with PBS for 5 min. Samples were with incubated 2% bovine serum albumin (BSA) for 30 min at room temperature to block for unspecific antibody binding. Following blocking, sections were washed three times in PBS and incubated with mouse monoclonal antibody against α-SMA (1:500) (Dako, Inc) for 24 h at 4° C. […]

RARβ2 [1] = assay: Semi-quantitative PCR of pancreatic tissue, LRAT -/- vitamin A deficient mice; type: in vivo; conditions: AC261066 for 8 weeks
Description: FIG. 10. Gene expression of RARβ2 in pancreatic tissue from LRAT −/− vitamin A sufficient mice (VAS, normal control diet), LRAT −/− vitamin A deficient (VAD) mice, and LRAT −/− vitamin A deficient (VAD) mice treated with AC261066 for 8 weeks.
(§2) Total RNA was extracted from mouse tissues using TRIzol reagent (Life technologies) and (1 μg) was used to synthesize cDNA. cDNA synthesis was performed at 42° C. for 1 h in a final volume of 20 μl using qScript (Quanta, MD). Semi-quantitative PCR were performed Taq DNA polymerase (Invitrogen, CA). Three step PCR was run as follows: 94° C. for 30 s, 58-64° C. for 45 s for primer annealing and 72° C. for 1 min for primer extension. The number of cycles for each primer pair for amplification in the linear range was determined experimentally. PCR products were resolved on 2% agarose gels and visualized by staining with ehtidium bromide. Primers for gene expression used were as follows: […]

[2] = Serum triglyceride level measurement; type: in vivo, mice; conditions: HF+AC261066 feeding vs CF controls
Text: as §1
The analysis of serum triglyceride levels was carried out using a bichromatic assay at the Laboratory of Comparative Pathology of the Memorial Sloan-Kettering Cancer Center. Chow-fed diet (CFD) n=2; high fat diet (HFD) n=3; high fat diet+AC261066 (HFDAC) n=5.

RARβ2 [3] = assay: Semi-quantitative PCR of pancreatic tissue, HF-fed mice; type: in vivo; conditions: HF diet mice + AC261066 vs HF-vehicle
Text: as §1, §2

TNF-α [4] = assay: Semi-quantitative PCR kidney, TNF-α; type: in vivo; conditions: HF diet mice + AC261066
Text: as §1
as §2, with “(Invitrogen.” for “(Invitrogen,”

TNF-α [5] = assay: Semi-quantitative PCR liver, TNF-α; type: in vivo; conditions: HF diet mice + AC261066 or CD1530
Text: as §1
as §2, with “resolved” for “resolved on”

renal lipid accumulation = assay: Hematoxylin and eosin staining of kidney sections; type: in vivo; conditions: HF diet mice + AC261066 or CD1530; vs HF-vehicle
Text: as §1
At sacrifice, fresh mouse liver samples were fixed in 4% formaldehyde solution for 24 hr and embedded in paraffin blocks. Kidney paraffin sections were cut 5 microns thick and mounted on glass slides and stained with hematoxylin and eosin (H and E) using standard protocols.

[6] = tested on: retinyl palmitate and retinol; assay: HPLC analysis of liver retinoids; type: in vivo, mice
Text: as §1
The frozen liver tissue samples (˜100 mg) were homogenized in 500 μl cold phosphate-buffered saline (PBS). In addition, 100 μl serum was diluted in cold PBS to total volume of 500 μl. Retinyl acetate was added to each sample before the retinoid extraction for the calculation of extraction efficiency. The retinoids were extracted into 350 μl of organic solution (acetonitrile/butanol, 50:50, v/v) in the dark. The high performance liquid chromatography (HPLC) was performed using a Waters Millennium system (Waters). Each sample (100 μl of the 350 μl) was loaded onto an analytical 5-μm reverse phase C18 column (Vydac, Hesperia, Calif.) and eluted at a flow rate of 1.5 ml/min. Two mobile phase gradient systems were used. Retinoids were identified by HPLC based on two criteria: an exact match of the retention times of unknown peaks with those of authentic retinoid standards and identical UV light spectra (220-400 nm) of unknowns against spectra from authentic retinoid standards during HPLC by the use of a photodiode array detector. The amounts of retinoids were calculated from the areas under the peaks detected at the wave-length of 325 nm. The levels of retinol and retinyl esters were normalized to the tissue weight.

LRAT = assay: Semi-quantitative PCR kidney, LRAT; type: in vivo; conditions: HF diet mice + AC261066
Text: as §1
as §2, with “(Invitrogen.” for “(Invitrogen,”

[7] = HF diet mice + AC261066 or CD1530 vs controls

## CCCCOCCOc1nc(-c2ccc(C(=O)O)c(F)c2)sc1C [AC261066]
α-SMA
  α-SMA positive areas in kidney: diminished expression of the fibrogenic protein alpha-SMA; also recorded: not observed
RARβ2 [1]
  RARβ2 mRNA levels in pancreas: increased the RARβ2 mRNA levels
[2]
  serum triglyceride levels: does not increase triglyceride levels; also recorded: does not affect serum triglyceride levels
RARβ2 [3]
  RARβ (RARβ2) mRNA levels in pancreas: increased the RAR 32 mRNA levels; also recorded: increased compared to HF-vehicle treated mice
TNF-α [4]
  mRNA levels of TNF-α in kidney: reduces the levels of TNF-alpha
TNF-α [5]
  mRNA levels of TNF-α in liver: significantly diminish
Renal lipid accumulation
  renal lipid infiltration/accumulation (H and E): diminished renal lipid accumulation; also recorded: markedly decreased renal lipid infiltration
[6]; HF diet mice + AC261066
  higher levels of retinyl palmitate in the livers compared to HF-vehicle treated mice: 55%
[6]; [7]
  liver retinol compared to controls: significantly lowered
  liver retinyl palmitate compared to controls: significantly lowered
[6]; HFD+AC261066
  vitamin A deficiency in liver caused by high fat diet: partially reversed
LRAT
  LRAT mRNA levels in kidney: restores RAR beta and LRAT mRNA levels
